According to patent publication US3989730A, “Bone-seeking technetium-99m complex” (priority 1973, dated 1976):
Where two headings read alike, the source gives them in different places.

Legend:
[1] = Simultaneous distribution of 99mTc-EHDP and 85Sr in rabbits at 1-24 hours after intravenous injection; type: in vivo, adult New Zealand albino rabbits; conditions: for Blood, % Dose in Whole Organ: blood as 7 % of body weight; for Bone(Avg), % dose in whole organ: bone as 10 % of body weight; for Marrow, % Dose in Whole Organ: marrow as 2.2 % of body weight
Method: Adult New Zealand albino rabbits having an average weight of 3.8 kg were utilized. Strontium-85 was employed as a standard for comparison. […] Each dosage is contained in a volume of 1 ml.
Multiple samples were counted from the tibia, femur, spine and pelvic bones; the total activity in the skeleton was estimated by assuming the whole skeleton consisted of equal proportions by weight of tibia, spine, femur and pelvis and that the skeletal mass was 10% of the body weight. […] The whole liver and both kidneys were weighed and multiple samples from each were counted to measure the total activity in each organ.

[2] = system: callous of three week-old fractures of tibia; assay: Localization in callous of three week-old tibial fractures (rabbits), compared with strontium-85; type: in vivo, albino rabbits
Method: Adult New Zealand albino rabbits having an average weight of 3.8 kg were utilized. Strontium-85 was employed as a standard for comparison. In a typical experiment 20-250 μCi (i.e., containing approximately 1 mg/kg as the free acid of body weight) of 99mTc EHDP were injected intravenously into the rabbits through the marginal ear vein and compared with 10-20 μ Ci 85 Sr chloride administered simutaneously. Each dosage is contained in a volume of 1 ml.
The animals were sacrificed serially from 1 to 24 hours after injection and the activities in major organs were determined by counting multiple samples from each organ in a scintillation well counter (the technetium-99m counts were corrected for the Compton contributions from the strontium-85 activity in the technetium-99m energy window). Multiple samples were counted from the tibia, femur, spine and pelvic bones; the total activity in the skeleton was estimated by assuming the whole skeleton consisted of equal proportions by weight of tibia, spine, femur and pelvis and that the skeletal mass was 10% of the body weight. The red marrow was sampled from the femur and the total marrow was assumed to be 2.2% of the total body weight. Similarly, blood volume was assumed to be 7% and the skeletal muscle 43% of the body weight. The whole liver and both kidneys were weighed and multiple samples from each were counted to measure the total activity in each organ.
In another series of experiments carried out as described above, localization of technetium from its tin-phosphonate complex was determined in the callous of three week-old fractures of tibia in albino rabbits, again in comparison with strontium-85. Comparative radioassay of technetium-99m administered as the pertechnetate was measured in the callous of tibial fractures in rabbits at one and four hours after administration.

[3] = 2 Hrs
[4] = cited from earlier work

Substance: tin-1-hydroxy-ethane-1,1-diphosphonate [99mTc-EHDP]
- Blood, % dose / 1 % body weight ([1]; 1 Hr): 1.23 % dose / 1 % body weight
- Bone(Avg), % dose / 1 % body weight ([1]; 1 Hr): 4.66 % dose / 1 % body weight
- Femur, % dose / 1 % body weight ([1]; 1 Hr): 3.85 % dose / 1 % body weight
- Kidneys, % Dose in Whole Organ ([1]; 1 Hr): 2.40 % dose
- Kidneys, % dose / 1 % body weight ([1]; 1 Hr): 3.93 % dose / 1 % body weight
- Liver, % Dose in Whole Organ ([1]; 1 Hr): 0.80 % dose
- Liver, % dose / 1 % body weight ([1]; 1 Hr): 0.30 % dose / 1 % body weight
- Marrow, % dose / 1 % body weight ([1]; 1 Hr): 0.36 % dose / 1 % body weight
- Muscle, % dose / 1 % body weight ([1]; 1 Hr): 0.15 % dose / 1 % body weight
- One Femur, % Dose in Whole Organ ([1]; 1 Hr): 0.82 % dose
- Pelvis, % dose / 1 % body weight ([1]; 1 Hr): 7.15 % dose / 1 % body weight
- Spine, % dose / 1 % body weight ([1]; 1 Hr): 5.87 % dose / 1 % body weight
- Tibia, % dose / 1 % body weight ([1]; 1 Hr): 2.17 % dose / 1 % body weight
- Urine, % Dose ([1]; 1 Hr): 30.9 % dose
- Blood, % Dose in Whole Organ ([1]; 1 Hr): 8.61 % dose
- Bone(Avg), % dose in whole organ ([1]; 1 Hr): 46.6 % dose
- Marrow, % Dose in Whole Organ ([1]; 1 Hr): 0.70 % dose
- Blood, % dose / 1 % body weight ([1]; 2 Hrs): 0.37 % dose / 1 % body weight
- Bone(Avg), % dose / 1 % body weight ([1]; 2 Hrs): 4.82 % dose / 1 % body weight
- Femur, % dose / 1 % body weight ([1]; 2 Hrs): 3.94 % dose / 1 % body weight
- Kidneys, % Dose in Whole Organ ([1]; 2 Hrs): 1.22 % dose
- Kidneys, % dose / 1 % body weight ([1]; 2 Hrs): 2.72 % dose / 1 % body weight
- Liver, % Dose in Whole Organ ([1]; 2 Hrs): 0.42 % dose
- Liver, % dose / 1 % body weight ([1]; 2 Hrs): 0.18 % dose / 1 % body weight
- Marrow, % dose / 1 % body weight ([1]; 2 Hrs): 0.17 % dose / 1 % body weight
- Muscle, % dose / 1 % body weight ([1]; 2 Hrs): 0.04 % dose / 1 % body weight
- One Femur, % Dose in Whole Organ ([1]; 2 Hrs): 0.84 % dose
- Pelvis, % dose / 1 % body weight ([1]; 2 Hrs): 7.40 % dose / 1 % body weight
- Spine, % dose / 1 % body weight ([1]; 2 Hrs): 5.44 % dose / 1 % body weight
- Tibia, % dose / 1 % body weight ([1]; 2 Hrs): 2.49 % dose / 1 % body weight
- Urine, % Dose ([1]; 2 Hrs, 1 mg/kg): 51.8 % dose
- Blood, % Dose in Whole Organ ([1]; 2 Hrs): 2.58 % dose
- Bone(Avg), % dose in whole organ ([1]; 2 Hrs): 48.2 % dose
- Marrow, % Dose in Whole Organ ([1]; 2 Hrs): 0.38 % dose
- Blood, % dose / 1 % body weight ([1]; 4 Hrs): 0.13 % dose / 1 % body weight
- Bone(Avg), % dose / 1 % body weight ([1]; 4 Hrs): 4.74 % dose / 1 % body weight
- Femur, % dose / 1 % body weight ([1]; 4 Hrs): 3.86 % dose / 1 % body weight
- Kidneys, % Dose in Whole Organ ([1]; 4 Hrs): 0.94 % dose
- Kidneys, % dose / 1 % body weight ([1]; 4 Hrs): 1.95 % dose / 1 % body weight
- Liver, % Dose in Whole Organ ([1]; 4 Hrs): 0.28 % dose
- Liver, % dose / 1 % body weight ([1]; 4 Hrs): 0.11 % dose / 1 % body weight
- Marrow, % dose / 1 % body weight ([1]; 4 Hrs): 0.38 % dose / 1 % body weight
- Muscle, % dose / 1 % body weight ([1]; 4 Hrs): 0.03 % dose / 1 % body weight
- One Femur, % Dose in Whole Organ ([1]; 4 Hrs): 0.81 % dose
- Pelvis, % dose / 1 % body weight ([1]; 4 Hrs): 7.41 % dose / 1 % body weight
- Spine, % dose / 1 % body weight ([1]; 4 Hrs): 5.52 % dose / 1 % body weight
- Tibia, % dose / 1 % body weight ([1]; 4 Hrs): 2.16 % dose / 1 % body weight
- Urine, % Dose ([1]; 4 Hrs, 1 mg/kg): 53.4 % dose
- Blood, % Dose in Whole Organ ([1]; 4 Hrs): 0.89 % dose
- Bone(Avg), % dose in whole organ ([1]; 4 Hrs): 47.4 % dose
- Marrow, % Dose in Whole Organ ([1]; 4 Hrs): 0.83 % dose
- Blood, % dose / 1 % body weight ([1]; 24 Hrs): 0.07 % dose / 1 % body weight
- Bone(Avg), % dose / 1 % body weight ([1]; 24 Hrs): 4.14 % dose / 1 % body weight
- Femur, % dose / 1 % body weight ([1]; 24 Hrs): 3.42 % dose / 1 % body weight
- Kidneys, % Dose in Whole Organ ([1]; 24 Hrs): 0.63 % dose
- Kidneys, % dose / 1 % body weight ([1]; 24 Hrs): 1.29 % dose / 1 % body weight
- Liver, % Dose in Whole Organ ([1]; 24 Hrs): 0.43 % dose
- Liver, % dose / 1 % body weight ([1]; 24 Hrs): 0.28 % dose / 1 % body weight
- Marrow, % dose / 1 % body weight ([1]; 24 Hrs): 0.19 % dose / 1 % body weight
- Muscle, % dose / 1 % body weight ([1]; 24 Hrs): 0.02 % dose / 1 % body weight
- One Femur, % Dose in Whole Organ ([1]; 24 Hrs): 0.76 % dose
- Pelvis, % dose / 1 % body weight ([1]; 24 Hrs): 5.70 % dose / 1 % body weight
- Spine, % dose / 1 % body weight ([1]; 24 Hrs): 5.30 % dose / 1 % body weight
- Tibia, % dose / 1 % body weight ([1]; 24 Hrs): 2.10 % dose / 1 % body weight
- Blood, % Dose in Whole Organ ([1]; 24 Hrs): 0.49 % dose
- Bone(Avg), % dose in whole organ ([1]; 24 Hrs): 41.5 % dose
- Marrow, % Dose in Whole Organ ([1]; 24 Hrs): 0.42 % dose
- skeletal concentrations compared with 85Sr ([1]; rabbits): similar
- soft tissue and blood concentrations compared with 85Sr ([1]; various times, rabbits): much lower than those for 85 Sr
- Callus, % dose / 1 % body weight ([2]; 1 Hr): 24.7 % dose / 1 % body weight
- Callus, % dose / 1 % body weight ([2]; 4 Hrs): 28.9 % dose / 1 % body weight
- concentration in the callous compared with 85Sr ([2]; rabbits): somewhat lower than that of 85 Sr
- Blood, % Dose in Whole Organ ([3]; EHDP 0.01 mg/kg): 0.99 % Dose
- Kidneys, % Dose in Whole Organ ([3]; EHDP 0.01 mg/kg): 0.81 % Dose
- Liver, % Dose in Whole Organ ([3]; EHDP 0.01 mg/kg): 0.53 % Dose
- Marrow, % Dose in Whole Organ ([3]; EHDP 0.01 mg/kg): 0.34 % Dose
- Muscle, % Dose in Whole Organ ([3]; EHDP 0.01 mg/kg): 0.78 % Dose
- One Femur, % Dose in Whole Organ ([3]; EHDP 0.01 mg/kg): 2.20 % Dose
- One Tibia, % Dose in Whole Organ ([3]; EHDP 0.01 mg/kg): 2.05 % Dose
- Urine, % Dose ([3]; EHDP 0.01 mg/kg): 46.7 % Dose
- Blood, % Dose in Whole Organ ([3]; EHDP 0.05 mg/kg): 1.35 % Dose
- Kidneys, % Dose in Whole Organ ([3]; EHDP 0.05 mg/kg): 2.9 % Dose
- Liver, % Dose in Whole Organ ([3]; EHDP 0.05 mg/kg): 1.61 % Dose
- Marrow, % Dose in Whole Organ ([3]; EHDP 0.05 mg/kg): 0.78 % Dose
- Muscle, % Dose in Whole Organ ([3]; EHDP 0.05 mg/kg): 1.33 % Dose
- One Femur, % Dose in Whole Organ ([3]; EHDP 0.05 mg/kg): 2.44 % Dose
- One Tibia, % Dose in Whole Organ ([3]; EHDP 0.05 mg/kg): 2.22 % Dose
- Urine, % Dose ([3]; EHDP 0.05 mg/kg): 37.3 % Dose
- Blood, % Dose in Whole Organ ([3]; EHDP 0.1 mg/kg): 1.02 % Dose
- Kidneys, % Dose in Whole Organ ([3]; EHDP 0.1 mg/kg): 0.63 % Dose
- Liver, % Dose in Whole Organ ([3]; EHDP 0.1 mg/kg): 0.19 % Dose
- Marrow, % Dose in Whole Organ ([3]; EHDP 0.1 mg/kg): 0.20 % Dose
- Muscle, % Dose in Whole Organ ([3]; EHDP 0.1 mg/kg): 0.98 % Dose
- One Femur, % Dose in Whole Organ ([3]; EHDP 0.1 mg/kg): 2.82 % Dose
- One Tibia, % Dose in Whole Organ ([3]; EHDP 0.1 mg/kg): 2.44 % Dose
- Urine, % Dose ([3]; EHDP 0.1 mg/kg): 30.4 % Dose
- Blood, % Dose in Whole Organ ([3]; EHDP 0.5 mg/kg): 1.503 % Dose
- Kidneys, % Dose in Whole Organ ([3]; EHDP 0.5 mg/kg): 1.10 % Dose
- Liver, % Dose in Whole Organ ([3]; EHDP 0.5 mg/kg): 0.260 % Dose
- Marrow, % Dose in Whole Organ ([3]; EHDP 0.5 mg/kg): 0.19 % Dose
- Muscle, % Dose in Whole Organ ([3]; EHDP 0.5 mg/kg): 1.22 % Dose
- One Femur, % Dose in Whole Organ ([3]; EHDP 0.5 mg/kg): 1.75 % Dose
- One Tibia, % Dose in Whole Organ ([3]; EHDP 0.5 mg/kg): 1.43 % Dose
- Urine, % Dose ([3]; EHDP 0.5 mg/kg): 55.37 % Dose

Substance: technetium-99m
- external photon yield ([4]; gamma emission of 140 KeV): 90%
- half-life of radionuclide ([4]; radioactive decay): 6 h
